Data from patent US20190064177A1, “INCORPORATING COMPETITIVE BINDING INFORMATION INTO MOLECULAR ARRAY ANALYSIS TO GENERATE FUNCTION NETWORKS OF INTERACTIONS” (ARIZONA BOARD OF REGENTS ON BEHALF OF ARIZONA STATE …, priority 2017, published 2019).

System: diaphorase
Assay: fluorescently labeled diaphorase binding to peptide array with or without excess FAD
Settings: for 1 microM FAD (array fluorescence of bound diaphorase) / 1 micro no FAD (array fluorescence of bound diaphorase): 1 micromolar labeled diaphorase; for 1 microM FAD (array fluorescence of bound diaphorase) / 10 microM FAD (array fluorescence of bound diaphorase): excess FAD present; for 1 microM FAD (array fluorescence of bound diaphorase) / 1 micro no FAD (array fluorescence of bound diaphorase) / 10 microM FAD (array fluorescence of bound diaphorase) / 10 microM no FAD (array fluorescence of bound diaphorase): 65535 is detector saturation; for 10 microM FAD (array fluorescence of bound diaphorase) / 10 microM no FAD (array fluorescence of bound diaphorase): 10 micromolar labeled diaphorase; for 1 microM noFAD/FAD / 10 microM noFAD/FAD: ratio of binding without FAD to binding with FAD; for 1 microM noFAD/FAD / Meas. ratio: 1 micromolar diaphorase; for 10 microM noFAD/FAD: 10 micromolar diaphorase; for Meas. ratio: ratio without/with FAD calculated from measured binding values
Procedure: Measurements were performed in which diaphorase was bound to an array of about 126,000 unique sequences. The sequences were chosen simply to cover sequence space. 16 of the natural 20 amino acids were used to make up these sequences with C, I, M and T omitted. The diaphorase was fluorescently labeled and each peptide sequence feature was scanned and fluorescence recorded on the array. Diaphorase bound tightly to some peptides and not at all to others. Two different concentrations of diaphorase were used, 1 and 10 micromolar, and the diaphorase was either bound in the presence of excess FAD or not. […] Indeed the Pearson correlation coefficient between w/ and w/o FAD was >0.97, which actually speaks to the reproducibility of this dataset. However, there are some differences as shown on the scatter plot of FIG. 1. When one takes a ratio of the binding without FAD and the binding with FAD, one finds the following top 30 ratios (Table 1): Note that all these sequences end with a GSG linker sequence. Because there are two concentrations, one can easily check for consistency. Note that 65535 is detector saturation, so one has to ignore those values. For this reason, the lower concentration is used most of the time. […] It appears that this was some kind of error and was ignored in subsequent analysis. A similar conclusion can be made with the 7th highest value. Looking at the sequences, RW or at least R or K followed by a nonpolar or aromatic amino acid at the N-terminus. This is interesting as FAD is negatively charged, though the adenine in FAD looks a bit like tryptophan (see FIG. 2).

| Sequence | 1 microM FAD (array fluorescence of bound diaphorase) | 1 micro no FAD (array fluorescence of bound diaphorase) | 10 microM FAD (array fluorescence of bound diaphorase) | 10 microM no FAD (array fluorescence of bound diaphorase) | 1 microM noFAD/FAD | 10 microM noFAD/FAD | Meas. ratio |
| --- | --- | --- | --- | --- | --- | --- | --- |
| KNRPYNKDLEDGSG [array peptide with C-terminal GSG linker] | 5147 | 733.25 | 2589.25 | 2522.5 | 0.1425 | 0.9742 | 0.14 |
| AWVELEYQYVFEG |  |  |  |  |  |  | 0.74 |
| RVLPYHGWKWFSG |  |  |  |  |  |  | 2.45 |
| VKDGNKHYWRVSGSG (VKDGANKHYWRVSGSG) [array peptide with C-terminal GSG linker] | 12347.25 | 2221 | 17803.5 | 20355.75 | 0.1799 | 1.143 | 0.18 |
| YRRPWKFRDGSG [array peptide with C-terminal GSG linker] |  |  |  |  |  |  | 1.74 |
| YRFAQYKGQKDGSG [array peptide with C-terminal GSG linker] | 1604.25 | 4467.75 | 19933.75 | 56915 | 2.785 | 2.855 | 2.78 |
| RWSFPAKGGSG [array peptide with C-terminal GSG linker] | 3614 | 10002.75 | 51221.25 | 65535 | 2.768 | 1.279 | 2.77 |
| LFDNVLEFVEDGS |  |  |  |  |  |  | 0.69 |
| RWRYYWKSEGSG [array peptide with C-terminal GSG linker] | 4093.5 | 11043 | 51412.25 | 65535 | 2.698 | 1.275 | 2.70 |
| LDRLGEYQFSGSG [array peptide with C-terminal GSG linker] | 1164.75 | 709.25 | 7142.5 | 2995.75 | 0.6089 | 0.4194 | 0.61 |
| RYNLYKPSDGSG [array peptide with C-terminal GSG linker] | 1245.75 | 3569.5 | 18165 | 50327.75 | 2.865 | 2.771 | 2.87 |
| RFGQNLPLGGSG [array peptide with C-terminal GSG linker] | 2103.25 | 5802.25 | 34712 | 63502.5 | 2.759 | 1.829 | 2.76 |
| YRYGWQKYGGSG [array peptide with C-terminal GSG linker] |  |  |  |  |  |  | 2.43 |
| DANLFGYFKDGGS |  |  |  |  |  |  | 0.70 |
| PQKSNHFHEAQKR |  |  |  |  |  |  | 2.41 |
| SGVLQFFGGSG [array peptide with C-terminal GSG linker] |  |  |  |  |  |  | 0.70 |
| VLSLNQVYSEGSG [array peptide with C-terminal GSG linker] | 2705.5 | 1674.75 | 21822.25 | 9853.75 | 0.619 | 0.4515 | 0.62 |
| YRRFPYFPGGSG [array peptide with C-terminal GSG linker] |  |  |  |  |  |  | 1.60 |
| FNKVLEYKWLFEG |  |  |  |  |  |  | 0.73 |
| YRGAGKNKGGSG [array peptide with C-terminal GSG linker] |  |  |  |  |  |  | 1.49 |

| Sequence | 1 microM FAD (array fluorescence of bound diaphorase) | 1 micro no FAD (array fluorescence of bound diaphorase) | 10 microM FAD (array fluorescence of bound diaphorase) | 10 microM no FAD (array fluorescence of bound diaphorase) | 1 microM noFAD/FAD | 10 microM noFAD/FAD | Meas. ratio |
| --- | --- | --- | --- | --- | --- | --- | --- |
| YWRFYANWAQLFG |  |  |  |  |  |  | 2.56 |
| KPLAVQKVGSG (KPLAVQKVFGSG) [array peptide with C-terminal GSG linker] | 3707.5 | 34797.5 | 36814 | 46161 | 9.386 | 1.254 | 9.39 |
| VERASYNLDGSG [array peptide with C-terminal GSG linker] | 2238 | 759 | 3374 | 2900.5 | 0.3391 | 0.8597 | 0.34 |
| KHSFQKELGGSG [array peptide with C-terminal GSG linker] | 727.5 | 2086 | 300.5 | 2387.25 | 2.867 | 0.7943 | 2.87 |
| WRPFWKNLGGSG [array peptide with C-terminal GSG linker] |  |  |  |  |  |  | 2.18 |
| AFNVWQYFEGGSG [array peptide with C-terminal GSG linker] |  |  |  |  |  |  | 0.73 |
| ALDKLSGLWKHVG |  |  |  |  |  |  | 0.69 |
| WHLLGWVGYGGSG [array peptide with C-terminal GSG linker] |  |  |  |  |  |  | 0.70 |
| YRWGAKHYGGSG [array peptide with C-terminal GSG linker] |  |  |  |  |  |  | 2.06 |
| EGYANKLLALFSGSG [array peptide with C-terminal GSG linker] | 1727 | 1034 | 10408.25 | 6648 | 0.5987 | 0.6387 | 0.60 |
| RYPWNKLYKFDGSG [array peptide with C-terminal GSG linker] | 3483.25 | 9735.75 | 53014.5 | 65535 | 2.795 | 1.236 | 2.80 |
| EGFGYLFAHVGGS |  |  |  |  |  |  | 0.78 |
| RQAYLFGGSG [array peptide with C-terminal GSG linker] | 4477 | 14479.75 | 64033.5 | 65535 | 3.234 | 1.023 | 3.23 |
| RAQYAQYLFGGSG [array peptide with C-terminal GSG linker] | 3162 | 8721.5 | 55433.5 | 65535 | 2.758 | 1.182 | 2.76 |
| VFGVLSQVARDGSG [array peptide with C-terminal GSG linker] | 6638 | 4250.5 | 51495.5 | 26186.5 | 0.6403 | 0.5085 | 0.64 |
| PVPWRHVNYAHSG |  |  |  |  |  |  | 0.69 |
| HVYGLNLFDGSG [array peptide with C-terminal GSG linker] |  |  |  |  |  |  | 0.72 |
| DYFEGQLNHLGGS |  |  |  |  |  |  | 0.75 |
| EDEGLSKFEGGSG [array peptide with C-terminal GSG linker] | 4165.5 | 560.55 | 1378.5 | 1220.25 | 0.1346 | 0.8852 | 0.13 |
